# Experimental data: patent US20180265934A1, “COINCIDENCE REPORTER GENE SYSTEM” (The United States of America, as represented by the …, priority 2013, published 2018)
# Counter-ions that a name gives are not always drawn. Like-named read-outs stand apart in the source and are kept apart here. Where a SMILES comes first, the peptide text is derived from it. The star is where a group is joined. Cbz = O=C(OCc1ccccc1)*
# Legend:
# [1] = system: cAMP-response element (CRE) / CREB pathway; assay: LOPAC1280 qHTS, 4×CRE-driven FLuc-P2A-RLuc coincidence reporter (pCI-6.24) in GripTite 293 MSR cells; assay type: cell-based
# Experimental: This protocol measures bioluminescence derived from both FLuc and RLuc expression from a single assay. […] Sixteen hours after transfection, cells were trypsinized and then dispensed at 2,000 cells/20 μL/well in 384-well tissue culture treated white/solid bottom plates (Greiner Bio-One North America, Monroe, N.C.). The assay plates were incubated at 37° C. for 10 hours before adding the DUAL-GLO detection reagent (Promega). Luminescence from luciferase activity was detected by using a VIEWLUX plate reader (PerkinElmer, Waltham, Mass.).
# Sixteen hours after transfection, cells were trypsinized and then dispensed at 500 cells/4 μL/well in 1,536-well tissue culture treated white/solid bottom plates (Greiner Bio-One North America) using a multidrop combi dispenser (Thermo Fisher Scientific). […] The assay plates were incubated at 37° C. for 10 hours before adding the DUAL-GLO detection reagent (3.5 μL+3.5 μL for each well) (Promega). Luminescence from luciferase activity was detected by using VIEWLUX (PerkinElmer). Each experimental plate contained forskolin as a positive control and DMSO as a negative control. Percentage activity was defined as the percentage signal relative to forskolin (100%) and DMSO (0%).
# [2] = system: cAMP-response element (CRE), adenylyl cyclase signaling; assay: Compound test, 24-point titration, 4×CRE-driven FLuc-P2A-RLuc (pCI-6.24), 384-well; assay type: cell-based; settings: PTC124 on FLuc, BTS on RLuc; relative to non-treated control
# Experimental: For the compound test, forskolin, PTC124 and BTS were prepared in a 24-point intraplate titration format and pre-diluted in the cell culture medium. Purified pCI-6.24 construct was transfected into GRIPTITE 293 MSR cells (Life Technologies). Sixteen hours post transfection, cells were trypsinized and then dispensed at 2,000 cells/15 μL/well in 384-well tissue culture treated white/solid bottom plates (Greiner Bio-One North America). Five μL of pre-diluted compound was transferred into assay plates, resulting in a final concentration ranging from 0.027 nM to 227 μM (forskolin) and 0.011 nM to 91 μM (PTC124 and BTS). The assay plates were incubated at 37° C. for 10 hours. FLuc and RLuc activities were then detected using DUAL-GLO reagent (Promega) and a VIEWLUX plate reader (PerkinElmer). Concentration-response curves and concentrations of half-maximal activity (EC50) for each compound were generated by using PRISM 4 software (GraphPad Software, Inc., La Jolla, Calif.).
# [3] = system: PARK2 (Parkin) gene expression; assay: Compound library screening, Parkin coincidence reporter cell line (FLuc-P2A-NLuc in PARK2 locus, BE(2)-M17 cells), 1536-well; assay type: cell-based, human; settings: 24 h, titration
# Experimental: Construction of the Parkin coincidence reporter cell line by TALEN-mediated genome editing was carried out as follows. To generate a double-strand cleavage of the genomic DNA in the first codon of the PARK2 gene, constructs encoding transcription activator-like effector nuclease (TALEN) pairs (Right and Left) encoding components of the heterodimeric FokI nuclease were generated as described by Huang et al., Nature Biotechnology, 29: 699-700 (2011). The TALEN pair was designed to generate a double-strand cleavage at or near the first translation codon (ATG) within the Parkin gene. These constructs were transfected with Lipofectamine LTX (Life Technologies) into BE(2)-M17 cells (ATCC) […] along with a GFP-expressing marker plasmid and the coincidence reporter donor plasmid. After 48 hours of incubation in a tissue culture incubator, GFP-positive cells were sorted by FACS analysis and single clones were isolated and expanded. Once sufficient cell populations for each clone were achieved, analysis of correct genomic insertion of the Fluc-P2A-NLuc-PEST-PolyA coincidence reporter cassette that replaced the “ATGATAG” (SEQ ID NO: 362) sequence at the […] of the PARK2 gene exon 1 was ascertained by PCR and DNA sequencing of genomic DNA preparations (QIAGEN).
# Compound library screening in 1536-well plates was carried out as follows. The Parkin coincidence reporter cell line was seeded at a density of 2000 cell/well into white, solid bottom, tissue-culture treated (Greiner Bio-One), 1536-well microplates in a total of 5 μL/well of culture medium. After a 16 hour incubation in a tissue-culture incubator, a compound pin tool (Wako) was used to transfer 20 nL of compound dissolved in DMSO for library plates to the assay plates. Compounds were present in either a 6 or 12-point titration in the library plates. DMSO vehicle, CCCP, and PTC-124 were also added to the designated control well. After a 24 hour incubation in the tissue culture incubator, the volume in each well of both plates was reduced to 2 μL with a microplate aspiration system (BioTek) and then 2 μL of Firefly Luciferase assay reagent (Promega) was added to every well each plate and luminescent signal from each well of each plate was measured on a VIEWLUX plate reader (PerkinElmer). Following the first read, 2 μL of NanoLuc assay reagent (Promega) including a proprietary firefly luciferase inhibitor (to quench the firefly reaction) was added to every well of each plate. After a second 15 minute incubation at room temperature, the NanoLuc signal from each well of each plate was measured on the VIEWLUX. Raw luminescent signal is expressed as a % of the positive control (10 uM CCCP for NanoLuc and 500 nM PTC-124 for FLuc).
# [4] = Table 5, coincident activators; FLuc readout, 10 h, ~4 nM to 57 μM; read-out: FLuc EC50
# [5] = Table 5, coincident activators; RLuc readout, 10 h, ~4 nM to 57 μM; read-out: RLuc EC50
# [6] = GripTite 293 MSR, 10 h, Table 5, coincident activators; FLuc readout, 10 h, ~4 nM to 57 μM; read-out: FLuc EC50
# [7] = GripTite 293 MSR, 10 h, Table 5, coincident activators; RLuc readout, 10 h, ~4 nM to 57 μM; read-out: RLuc EC50
# [8] = Table 6, compounds activating RLuc only; RLuc readout, 10 h; read-out: RLuc EC50
# [9] = GripTite 293 MSR; Table 6, compounds activating RLuc only; RLuc readout, 10 h; read-out: RLuc EC50
# [10] = GripTite 293 MSR, 10 h, Table 6, compounds activating RLuc only; RLuc readout, 10 h; read-out: RLuc EC50
Compound,"Ratio F/R ([1]; FLuc EC50 / RLuc EC50, Table 5)","EC50 [1, 6]","EC50 [1, 7]",other results
"NC(=S)c1ccc[n+]([C@@H]2OC(COP(=O)([O-])OP(=O)(O)OC[C@H]3O[C@@H](n4cnc5c(N)ncnc54)[C@H](OP(=O)(O)O)[C@@H]3O)C(O)C2O)c1 (stereo in doubt) [compound 15, Thio-NADP sodium]",0.95,,,"EC50 [1, 4]: 2.39 µM; EC50 [1, 5]: 2.51 µM"
Cc1ccc(S(=O)(=O)NCc2ccccc2)cc1 [BTS],,,,effect on reporter activity by reporter stabilization [2]: increase the activity of the reporters
CC(C)C[C@@H](C=O)NC(=O)[C@H](CC(C)C)NC(=O)[C@H](CC(C)C)NC(=O)OCc1ccccc1 [MG-132] (Cbz-Leu-Leu-Leu-aldehyde),,,,coincident reporter response (FLuc and NLuc) [3]: do not elicit a coincident reporter response; signal obtained through reporter interference [3]: NLuc signal is obtained through reporter interference
O=c1c(O)c(-c2ccc(O)c(O)c2)oc2cc(O)cc(O)c12 [Quercetin],,,,coincident reporter response (FLuc and NLuc) [3]: elicits a coincidence response from both FLuc and NLuc; modulation of endogenous Parkin expression [3]: genuine modulator of endogenous Parkin expression
Oc1ccc(C=Cc2cc(O)cc(O)c2)cc1 [Resveratrol],,,,coincident reporter response (FLuc and NLuc) [3]: do not elicit a coincident reporter response; signal obtained through reporter interference [3]: FLuc signal is obtained through reporter interference
"Cc1ccccc1CNc1ncnc2c1ncn2[C@@H]1O[C@H](CO)[C@@H](O)[C@H]1O [compound 3, Metrifudil]",2.20,1.34 µM,0.61 µM,
"Nc1nc(Nc2ccccc2)nc2c1ncn2[C@@H]1O[C@H](CO)[C@@H](O)[C@H]1O [compound 4, 2-Phenylaminoadenosine]",0.95,10.7 µM,11.2 µM,
"OC[C@H]1O[C@@H](n2cnc3c(NC4CCCCC4)ncnc32)[C@H](O)[C@@H]1O [compound 5, N6-Cyclohexyladenosine]",0.67,16.9 µM,25.1 µM,
"OC[C@H]1O[C@@H](n2cnc3c(NC4CCCC4)ncnc32)[C@H](O)[C@@H]1O [compound 6, N6-Cyclopentyladenosine]",0.75,0.95 µM,1.26 µM,
"OC[C@H]1O[C@H](n2cnc3c(N[C@H]4CCC[C@@H]4O)ncnc32)[C@H](O)[C@@H]1O [compound 7, GR 79236X]",0.85,,,"EC50 [1, 4]: 2.69 µM; EC50 [1, 5]: 3.16 µM"
"Nc1ccc(CCNc2ncnc3c2ncn3[C@@H]2O[C@H](CO)[C@@H](O)[C@H]2O)cc1 [compound 8, N6-2-(4-Aminophenyl)ethyladenosine]",1.56,1.45 µM,0.93 µM,
"CNC(=O)[C@H]1O[C@@H](n2cnc3c(NCc4ccc(N)cc4)ncnc32)[C@H](O)[C@@H]1O [compound 9, AB-MECA]",3.51,,,"EC50 [1, 4]: 1.51 µM; EC50 [1, 5]: 0.43 µM"
"Nc1nc(Cl)nc2c1ncn2[C@@H]1O[C@H](CO)[C@@H](O)[C@H]1O [compound 11, 2-Chloroadenosine]",1.13,0.43 µM,0.38 µM,
"CNc1ncnc2c1ncn2[C@@H]1O[C@H](CO)[C@@H](O)[C@H]1O [compound 12, N6-Methyladenosine]",1.26,16.7 µM,13.3 µM,
"CCNC(=O)[C@H]1O[C@@H](n2cnc3c(N)ncnc32)[C@H](O)[C@@H]1O [compound 13, 5′-N-Ethylcarboxamidoadenosine]",0.56,,,"EC50 [1, 4]: 0.3 µM; EC50 [1, 5]: 0.54 µM"
"CCCCC#Cc1nc(NC)c2ncn([C@@H]3O[C@H](CO)[C@@H](O)[C@H]3O)c2n1 [compound 14, HEMADO]",1.78,,,"EC50 [1, 4]: 2.69 µM; EC50 [1, 5]: 1.51 µM"
"NC(=O)C1=CN([C@@H]2O[C@H](COP(=O)(O)OP(=O)(O)OC[C@H]3O[C@@H](n4cnc5c(N)ncnc54)[C@H](OP(=O)(O)O)[C@@H]3O)[C@@H](O)[C@H]2O)C=CC1 [compound 16, NADPH tetrasodium]",0.81,,,"EC50 [1, 4]: 18.2 µM; EC50 [1, 5]: 22.4 µM"
"Nc1nc(Cl)nc2c1ncn2[C@@H]1O[C@H](COP(=O)([O-])OP(=O)([O-])OP(=O)([O-])[O-])[C@@H](O)[C@H]1O.[Na+].[Na+].[Na+].[Na+] [compound 17, 2-Chloroadenosine triphosphate tetrasodium]",2.96,11.5 µM,3.89 µM,
"CNc1cc(NS(=O)(=O)c2ccc(N)cc2)nc(NC)n1 [compound 20, Ro 04-6790 hydrochloride]",,,,"EC50 [1, 8]: 2.05 µM"
"C[C@H](Cc1ccccc1)Nc1ncnc2c1ncn2[C@@H]1O[C@H](CO)[C@@H](O)[C@H]1O [cpd 1, R(−)-N6-(2-Phenylisopropyl)adenosine]",3.32,,,"EC50 [1, 4]: 9.37 µM; EC50 [1, 5]: 2.82 µM"
"OC[C@H]1O[C@@H](n2cnc3c(Nc4ccccc4)ncnc32)[C@H](O)[C@@H]1O [cpd 2, N6-Phenyladenosine]",0.87,12.7 µM,14.6 µM,
"C#CCOC(=O)C1=CCCN(C)C1 [cpd 18, Arecaidine propargyl ester hydrobromide (APE)]",1.16,,,"EC50 [1, 4]: 3.59 µM; EC50 [1, 5]: 3.09 µM; FLuc and RLuc signal outputs in the screen ([1]; qHTS, both reporters): coincident FLuc and RLuc signal outputs"
"NC(=O)COc1c(F)cc(SCCNS(=O)(=O)c2ccccc2)cc1F [cpd 21, 2,6-Difluoro-4-[2-(phenylsulfonylamino)ethylthio]phenoxyacetamide]",,,,"EC50 [1, 9]: 21.4 µM"
"NCCNS(=O)(=O)c1cccc2c(Cl)cccc12 [cpd 22, A3 hydrochloride]",,,,"EC50 [1, 8]: 15.8 µM"
"COc1ccc(Cl)cc1C(=O)NCCc1ccc(S(=O)(=O)NC(=O)NC2CCCCC2)cc1 [cpd 23, Glybenclamide]",,,,"EC50 [1, 10]: 30.4 µM"
"CC1=NS(=O)(=O)c2cc(Cl)ccc2N1 [cpd 24, Diazoxide]",,,,"EC50 [1, 10]: 9.15 µM"
"N#CC(=C(/N)Sc1ccccc1N)/C(C#N)=C(\N)Sc1ccccc1N [cpd 25, U0126]",,,,"EC50 [1, 9]: 8.49 µM"
"O=C(c1ccc(OCCN2CCCCC2)cc1)c1c(-c2ccc(O)cc2)sc2cc(O)ccc12 [cpd 26, Raloxifene hydrochloride]",,,,"EC50 [1, 10]: 12 µM"
